The numbers were not newly measured in patent US20170252311A1, “SPHINGOSINE KINASE INHIBITORS AND CERAMIDE FOR MAINTENANCE THERAPY OF GLIOBLASTOMA” (SignPath Pharma Inc., priority 2016, published 2017), which cites them from elsewhere.

Like-named read-outs stand apart in the source and are kept apart here.

One data set has as its system tumor. As to conditions: single agent.
For data set [1], the system named is JC mouse mammary adenocarcinoma cell line.
Data set [2] relates to JC mammary adenocarcinoma cells. Conditions: syngeneic BALB/c mouse solid tumor model of JC cells.
Data set [3] deals with SPT (serine palmitoyltransferase).
In data set [4] the test system is Cer Syn (ceramide synthase).
A further data set deals with SK (sphingosine kinase). Conditions: arrow down = decrease, arrow up = increase (not defined in patent).
The subject of data set [5] is U87MG, U1242MG, M059K cell lines. As to conditions: in all three lines.
In data set [6] the target is T1, Acid Cer (Acid ceramidase) (Homo sapiens, UniProt Q13510).
T1 sequence (Q13510 22-395): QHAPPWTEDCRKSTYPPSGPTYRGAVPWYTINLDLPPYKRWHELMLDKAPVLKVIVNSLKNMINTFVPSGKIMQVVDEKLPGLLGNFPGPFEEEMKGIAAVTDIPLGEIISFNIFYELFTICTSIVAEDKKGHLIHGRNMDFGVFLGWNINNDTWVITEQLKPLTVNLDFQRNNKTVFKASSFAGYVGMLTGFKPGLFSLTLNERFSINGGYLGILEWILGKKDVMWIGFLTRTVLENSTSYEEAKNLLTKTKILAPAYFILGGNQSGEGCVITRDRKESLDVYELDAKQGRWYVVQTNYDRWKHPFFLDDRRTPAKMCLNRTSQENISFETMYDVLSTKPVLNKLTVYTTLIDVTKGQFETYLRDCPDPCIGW

Data set [7] addresses GCS (glucosylceramide synthase) (Homo sapiens, UniProt Q16739).
A further data set has as its system protein kinase C. Conditions: selectivity.
Data set [8] deals with other serine/threonine kinases. As to conditions: selectivity.
Data set [9] deals with human leukemic cell lines and acute myelogenous leukemia xenografts. As to conditions: human leukemic cell lines and AML xenografts.
Data set [10] deals with LN229 and U373 glioblastoma cell lines, non-established human GBM6 cells, and GBM xenografts.
The next data set addresses SK2 (Homo sapiens, UniProt Q9NRA0). As to conditions: selectivity.
The next data set concerns protein kinase B. Conditions: selectivity.
In data set [11] the test system is LN229 intracranial xenografts.
Data set [12] concerns prostate cancer cell lines and TRAMP-C2 xenografts.
Data set [13] deals with xenograft prostate cancer models.
Data set [14] relates to GTP cyclohydrolase (GTPCH). Conditions: C6 glioma cell line.

Sequence of GCS (glucosylceramide synthase) (Q16739 whole entry, species assumed): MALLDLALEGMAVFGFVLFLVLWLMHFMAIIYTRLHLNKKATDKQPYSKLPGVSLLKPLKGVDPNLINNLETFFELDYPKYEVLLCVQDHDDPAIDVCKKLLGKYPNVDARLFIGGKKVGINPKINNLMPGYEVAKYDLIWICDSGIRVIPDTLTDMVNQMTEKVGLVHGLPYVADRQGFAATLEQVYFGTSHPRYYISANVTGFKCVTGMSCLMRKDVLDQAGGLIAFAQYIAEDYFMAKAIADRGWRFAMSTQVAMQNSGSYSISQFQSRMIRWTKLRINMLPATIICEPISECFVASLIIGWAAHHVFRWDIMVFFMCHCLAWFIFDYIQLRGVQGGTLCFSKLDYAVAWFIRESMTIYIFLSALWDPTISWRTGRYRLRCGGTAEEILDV
Sequence of SK2 (Q9NRA0 whole entry): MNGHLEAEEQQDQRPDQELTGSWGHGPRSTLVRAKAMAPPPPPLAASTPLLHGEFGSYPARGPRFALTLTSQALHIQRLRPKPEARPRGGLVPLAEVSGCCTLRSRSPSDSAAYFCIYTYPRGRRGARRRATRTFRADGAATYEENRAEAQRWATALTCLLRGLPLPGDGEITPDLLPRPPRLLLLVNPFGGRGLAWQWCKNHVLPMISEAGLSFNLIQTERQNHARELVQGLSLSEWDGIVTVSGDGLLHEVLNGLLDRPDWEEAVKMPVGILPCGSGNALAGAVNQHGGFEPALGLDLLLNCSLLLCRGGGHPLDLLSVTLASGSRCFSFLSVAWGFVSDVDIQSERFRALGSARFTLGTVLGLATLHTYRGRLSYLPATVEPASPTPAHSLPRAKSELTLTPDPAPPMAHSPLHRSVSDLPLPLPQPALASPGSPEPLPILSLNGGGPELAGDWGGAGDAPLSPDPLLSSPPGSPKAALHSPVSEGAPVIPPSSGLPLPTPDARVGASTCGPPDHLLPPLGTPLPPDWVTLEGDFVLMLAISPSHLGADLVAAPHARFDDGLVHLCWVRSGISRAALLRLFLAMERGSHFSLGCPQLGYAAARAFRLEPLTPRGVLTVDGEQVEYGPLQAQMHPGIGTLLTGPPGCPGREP

Take `CCCCCCCCCCCCC/C=C/[C@@H](O)[C@H](CO)[N+](C)(C)C` [N,N,N-trimethylsphingosine]: in the data set with tumor, the anti-tumor activity alone result is “did not appear to have significant anti-tumor activity alone”.
As for `CCCCCCCCCCCCCCC[C@H](O)[C@@H](N)CO` [safingol, D,L-threodihydrosphingosine], the anti-tumor activity alone result in the data set on tumor is “did not appear to have significant anti-tumor activity alone”.
For the compound `O=C(NN=Cc1c(O)ccc2ccccc12)c1cc(-c2ccc3ccccc3c2)n[nH]1` [SKI-I, 5-naphthalen-2-yl-2H-pyrazole-3-carboxylic acid (2-hydroxy-naphthalen-1-ylmethylene)-hydrazide], the anti-tumor activity result in data set [1] and in [2] was “anti-tumor activity” each time.
In the case of `Oc1ccc(C=Cc2cc(O)cc(O)c2)cc1` [Resveratrol], the “Sphingolipid Enzymes Affected: SPT” value in data set [3] was “↑SPT”. In [4], the “Sphingolipid Enzymes Affected: Cer Syn” value is “↑Cer Syn”. Besides, the “Sphingolipid Enzymes Affected: SK” value in the data set on SK (sphingosine kinase) is given as “↓SK”.
As to `O=C1C(=Cc2ccc(O)c(O)c2)Oc2ccccc21` [SKI-V, 2-(3,4-dihydroxy-benzylidene)-benzofuran-3-one], the anti-tumor activity entry in data set [1] and in data set [2] was “anti-tumor activity” in each case.
With `Oc1ccc(Nc2nc(-c3ccc(Cl)cc3)cs2)cc1` [SKI-II, 4-[4-(4-chloro-phenyl)-thiazol-2-ylamino]-phenol], the cancer cell death result in the data set on U251MG, D54MG cell lines (TMZ resistant GBM cell lines U251 and D54MG) is reported as “promote cancer cell death”. Moreover, in the data set on U251MG, D54MG cell lines (U251MG, D54MG), the “activity in cell lines made resistant to TMZ” value is on record as “Active in cell lines mde resistant”. In addition, the anti-tumor activity result in data set [1] is listed as “anti-tumor activity”. For the same compound, the anti-tumor activity result in data set [2] is listed as “especially effective”. The cellular proliferation result in [5] (listed as 2-(p-Hdroxyanilino)-4-(p-chlorophenyl)thiazole) was “Decreased cellular proliferation”. For the same compound, in data set [5] (listed as 2-(p-Hydroxyanilino)-4-(p-chlorophenyl)thiazole), the cellular proliferation result is listed as “significantly decreased the rate of proliferation”. In addition, in the data set with U118MG cell line, the “expression of urokinase plasminogen activator” value is recorded as “Blocked” and the invasiveness result is on record as “Decreased invasiveness”. For the same compound, in the data set on U98G cell line, the “cell cycle (accumulation of cells at G1)” value is “accumulation of cells at G1” and the proliferation entry was “Decreased proliferation. Caused”.
For the compound `OC(c1cc(C(F)(F)F)nc2c(C(F)(F)F)cccc12)C1CCCCN1` (stereo not drawn) [Mefloquine], the “Sphingolipid Enzymes Affected: Acid Cer” value in data set [6] is “↓Acid Cer”. The “Sphingolipid Enzymes Affected: SK” value in the data set with SK (sphingosine kinase) is on record as “↓SK”. In addition, the “Sphingolipid Enzymes Affected: GCS” value in data set [7] is “↑GCS”. For the same compound, the “Sphingolipid Enzymes Affected: SM Syn” value in the data set with SM Syn is reported as “↓SM Syn”. Also, the “Sphingolipid Enzymes Affected: SMase” value in the data set with SMase (Sphingomyelinase) is listed as “↑↓Smase”.
Turning to `COc1cc(/C=C/C(=O)CC(=O)/C=C/c2ccc(O)c(OC)c2)ccc1O` [Curcumin], in data set [3], the “Sphingolipid Enzymes Affected: SPT” value is “↑SPT”. Moreover, the “Sphingolipid Enzymes Affected: Cer Syn” value in [4] is “↑Cer Syn”. In the data set with SK (sphingosine kinase), the “Sphingolipid Enzymes Affected: SK” value was “↓SK”.
For the compound `Cc1ccc(NC(=O)c2ccc(CN3CCN(C)CC3)cc2)cc1Nc1nccc(-c2cccnc2)n1` [Imatinib], the “Sphingolipid Enzymes Affected: Cer Syn” value in data set [4] is “↑Cer Syn”. Moreover, the “Sphingolipid Enzymes Affected: SK” value in the data set with SK (sphingosine kinase) is “↓SK”.
Turning to `CC/C(=C(\c1ccccc1)c1ccc(OCCN(C)C)cc1)c1ccccc1` [tamoxifen], in data set [6], the “Sphingolipid Enzymes Affected: Acid Cer” value is reported as “decreases acid ceramidase”.
On to `Cc1cn(-c2cc(NC(=O)c3ccc(C)c(Nc4nccc(-c5cccnc5)n4)c3)cc(C(F)(F)F)c2)cn1` [Nilotinib], for which the “Sphingolipid Enzymes Affected: Cer Syn” value in data set [4] is on record as “↑Cer Syn”. In addition, in the data set on SK (sphingosine kinase), the “Sphingolipid Enzymes Affected: SK” value is listed as “↓SK”.
As for `CCN(CC)CCCC(C)Nc1ccnc2cc(Cl)ccc12` (stereo not drawn) [Chloroquine], the “Sphingolipid Enzymes Affected: Acid Cer” value in data set [6] is listed as “↓Acid Cer”. In the data set on SK (sphingosine kinase), the “Sphingolipid Enzymes Affected: SK” value was “↓SK”. Besides, the “Sphingolipid Enzymes Affected: GCS” value in data set [7] is given as “↑GCS”. Also, in the data set with SM Syn, the “Sphingolipid Enzymes Affected: SM Syn” value was “↓SM Syn”. The “Sphingolipid Enzymes Affected: SMase” value in the data set on SMase (Sphingomyelinase) was “↑↓Smase”.
Regarding `CCCCCc1ccc(/C=C/[C@H](O)[C@@H](CO)NC)cc1` [SK1-I, (2R,3S,4E)-N-methyl-5-(4′-pentylphenyl)-2-aminopent-4-ene-1,3-diol], in the data set on protein kinase C, the “inhibition of protein kinase C” value was “does not inhibit”. For the same compound, in data set [8], the “inhibition of other serine/threonine kinases” value is given as “does not inhibit”. In the data set with LN229, U373 cell lines, the cell growth entry is “Inhibited cell growth” and the migration result is recorded as “Inhibited”. Besides, in [9], the apoptosis result is reported as “induced apoptosis” and the tumor growth result is given as “blocked tumor growth”. Besides, in [10], the apoptosis entry is “prompts apoptosis”, the “protein kinase B (Akt) signaling” value was “inhibits protein kinase B (Akt) signaling” and the tumor development result is on record as “suppresses tumor development”. The “inhibition of SK2” value on SK2 is on record as “does not inhibit”. Moreover, the “inhibition of protein kinase B” value with protein kinase B is reported as “does not inhibit”. Besides, in data set [11], the angiogenesis entry is recorded as “Reduced”, the apoptosis entry was “Caused apoptosis” and the tumor growth rate entry is “Reduced tumor growth rate”. For the same compound, in the data set on GBM6 cell lines, the cell growth result is given as “Reduced cell growth” and the “epidermal growth factor-stimulated phosphorylation of Akt” value is listed as “Reduced”.
Regarding `O=C(NCc1ccncc1)C12CC3CC(C1)CC(c1ccc(Cl)cc1)(C3)C2` [ABC294640, 3-(4-chlorophenyl)-adamantane-1-carboxylic acid (pyridin-4-ylmethyl) amide], in data set [12], the cell viability entry is listed as “reduced cell viability” and the expression of c-myc result was “decreased expression of c-myc”. For the same compound, in data set [13], the cancer growth entry is listed as “significantly blocked cancer growth”.
In the case of `CCCCCCCCCCCCC/C=C/[C@@H](O)[C@H](CO)N(C)C` [N,N-dimethylshingosine], the “tumor necrosis factor-α induced GTP cyclohydrolase (GTPCH) activity” value in data set [14] is given as “Suppressed tumor necrosis”.
